# Assay results taken from patent US9175003B2, “Substituted azoanthracene derivatives and intermediates for preparation thereof” (TransTech Pharma, LLC, priority 2009, dated 2015).
# Molecular target: human GLP-1 receptor (Homo sapiens (Human), UniProt P43220)
# Settings: read-out: Mean EC50; cAMP, HTRF detection, 30 min at 37° C., HEK-293 cells expressing cloned human GLP-1 receptor
# Chain of human GLP-1 receptor (P43220 24-463): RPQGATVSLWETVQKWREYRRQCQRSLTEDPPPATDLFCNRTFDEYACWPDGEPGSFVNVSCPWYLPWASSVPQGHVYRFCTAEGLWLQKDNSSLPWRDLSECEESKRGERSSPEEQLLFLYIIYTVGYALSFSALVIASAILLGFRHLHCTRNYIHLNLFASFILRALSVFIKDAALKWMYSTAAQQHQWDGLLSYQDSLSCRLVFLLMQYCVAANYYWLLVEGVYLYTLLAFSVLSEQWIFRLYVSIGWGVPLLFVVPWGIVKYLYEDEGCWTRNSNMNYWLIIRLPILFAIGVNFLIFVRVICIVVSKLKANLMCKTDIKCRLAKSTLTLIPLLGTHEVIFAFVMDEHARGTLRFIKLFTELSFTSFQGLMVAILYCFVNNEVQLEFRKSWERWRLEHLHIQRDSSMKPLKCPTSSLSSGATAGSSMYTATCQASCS
row,Structure (SMILES),EC50
1,"CC[C@@H](c1ccccc1)N1Cc2cc3c(cc2C[C@H]1C(=O)N[C@@H](Cc1ccc(-c2ccnc(C)c2C)cc1)C(=O)O)OC[C@H](c1ccc(OCC2CCCC2)cc1)O3 [Example 160, (S)-2-{[(3S,8S)-3-(4-Cyclopentylmethoxy-phenyl)-7-((S)-1-phenyl-propyl)-2,3,6,7,8,9-hexahydro-[1,4]dioxino[2,3-g]isoquinoline-8-carbonyl]-amino}-3-[4-(2,3-dimethyl-pyridin-4-yl)-phenyl]-propionic acid]",0.062 µM
2,"CC[C@@H](c1ccccc1)N1Cc2cc3c(cc2C[C@H]1C(=O)N[C@@H](Cc1ccc(-c2ccnc(C)c2C)cc1)C(=O)O)OC[C@H](c1ccc(OC)cc1)O3 [Example 161, (S)-3-[4-(2,3-Dimethyl-pyridin-4-yl)-phenyl]-2-{[(3S,8S)-3-(4-methoxy-phenyl)-7-((S)-1-phenyl-propyl)-2,3,6,7,8,9-hexahydro-[1,4]dioxino[2,3-g]isoquinoline-8-carbonyl]-amino}-propionic acid]",0.117 µM
3,"CC[C@@H](c1ccccc1)N1Cc2cc3c(cc2C[C@H]1C(=O)N[C@@H](Cc1ccc(-c2ccnc(C)c2C)cc1)C(=O)O)OC[C@H](c1ccc(OC(C)C)cc1)O3 [Example 162, (S)-3-[4-(2,3-Dimethyl-pyridin-4-yl)-phenyl]-2-{[(3S,8S)-3-(4-isopropoxy-phenyl)-7-((S)-1-phenyl-propyl)-2,3,6,7,8,9-hexahydro-[1,4]dioxino[2,3-g]isoquinoline-8-carbonyl]-amino}-propionic acid]",0.056 µM
4,"CC[C@@H](c1ccccc1)N1Cc2cc3c(cc2C[C@H]1C(=O)N[C@@H](Cc1ccc(-c2ccnc(C)c2C)cc1)C(=O)O)OC[C@H](c1ccc(OCC2CCCCC2)cc1)O3 [Example 163, (S)-2-{[(3S,8S)-3-(4-Cyclohexylmethoxy-phenyl)-7-((S)-1-phenyl-propyl)-2,3,6,7,8,9-hexahydro-[1,4]dioxino[2,3-g]isoquinoline-8-carbonyl]-amino}-3-[4-(2,3-dimethyl-pyridin-4-yl)-phenyl]-propionic acid]",0.113 µM
5,"CC[C@@H](c1ccccc1)N1Cc2cc3c(cc2C[C@H]1C(=O)N[C@@H](Cc1ccc(-c2ccnc(C)c2C)cc1)C(=O)O)OC[C@H](c1ccc(OC2CCCCC2)cc1)O3 [Example 164, (S)-2-{[(3S,8S)-3-(4-Cyclohexyloxy-phenyl)-7-((S)-1-phenyl-propyl)-2,3,6,7,8,9-hexahydro-[1,4]dioxino[2,3-g]isoquinoline-8-carbonyl]-amino}-3-[4-(2,3-dimethyl-pyridin-4-yl)-phenyl]-propionic acid]",0.062 µM
6,"CC[C@@H](c1ccccc1)N1Cc2cc3c(cc2C[C@H]1C(=O)N[C@@H](Cc1ccc(-c2ccnc(C)c2C)cc1)C(=O)O)OC[C@H](c1ccc(OCCN(C)C)cc1)O3 [Example 165, (S)-2-{[(3S,8S)-3-[4-(2-Dimethylamino-ethoxy)-phenyl]-7-((S)-1-phenyl-propyl)-2,3,6,7,8,9-hexahydro-[1,4]dioxino[2,3-g]isoquinoline-8-carbonyl]-amino}-3-[4-(2,3-dimethyl-pyridin-4-yl)-phenyl]-propionic acid]",0.396 µM
7,"CCC(CC)Oc1ccc([C@H]2COc3cc4c(cc3O2)CN([C@@H](CC)c2ccccc2)[C@H](C(=O)N[C@@H](Cc2ccc(-c3ccnc(C)c3C)cc2)C(=O)O)C4)cc1 [Example 166, (S)-3-[4-(2,3-Dimethyl-pyridin-4-yl)-phenyl]-2-{[(3S,8S)-3-[4-(1-ethyl-propoxy)-phenyl]-7-((S)-1-phenyl-propyl)-2,3,6,7,8,9-hexahydro-[1,4]dioxino[2,3-g]isoquinoline-8-carbonyl]-amino}-propionic acid]",0.022 µM
8,"CC[C@@H](c1ccccc1)N1Cc2cc3c(cc2C[C@H]1C(=O)N[C@@H](Cc1ccc(-c2ccnc(C)c2C)cc1)C(=O)O)OC[C@H](c1ccc(OCCC2CCCC2)cc1)O3 [Example 167, (S)-2-{[(3S,8S)-3-[4-(2-Cyclopentyl-ethoxy)-phenyl]-7-((S)-1-phenyl-propyl)-2,3,6,7,8,9-hexahydro-[1,4]dioxino[2,3-g]isoquinoline-8-carbonyl]-amino}-3-[4-(2,3-dimethyl-pyridin-4-yl)-5 phenyl]-propionic acid]",0.174 µM
9,"CC[C@@H](c1ccccc1)N1Cc2cc3c(cc2C[C@H]1C(=O)N[C@@H](Cc1ccc(-c2ccnc(C)c2C)cc1)C(=O)O)OC[C@H](c1ccc(OCCC(C)(C)C)cc1)O3 [Example 168, (S)-2-{[(3S,8S)-3-[4-(3,3-Dimethyl-butoxy)-phenyl]-7-((S)-1-phenyl-propyl)-2,3,6,7,8,9-hexahydro-[1,4]dioxino[2,3-g]isoquinoline-8-carbonyl]-amino}-3-[4-(2,3-dimethyl-pyridin-4-yl)-phenyl]-propionic acid]",0.114 µM
10,"CC[C@@H](c1ccccc1)N1Cc2cc3c(cc2C[C@H]1C(=O)N[C@@H](Cc1ccc(-c2ccnc(C)c2C)cc1)C(=O)O)OC[C@H](c1ccc(OCc2cccnc2)cc1)O3 [Example 169, (S)-3-[4-(2,3-Dimethyl-pyridin-4-yl)-phenyl]-2-({(3S,8S)-7-((S)-1-phenyl-propyl)-3-[4-(pyridin-3-ylmethoxy)-phenyl]-2,3,6,7,8,9-hexahydro-[1,4]dioxino[2,3-g]isoquinoline-8-carbonyl}-amino)-propionic acid]",0.116 µM
11,"CCOc1ccc([C@H]2COc3cc4c(cc3O2)CN([C@@H](CC)c2ccccc2)[C@H](C(=O)N[C@@H](Cc2ccc(-c3ccnc(C)c3C)cc2)C(=O)O)C4)cc1 [Example 170, (S)-3-[4-(2,3-Dimethyl-pyridin-4-yl)-phenyl]-2-{[(3S,8S)-3-(4-ethoxy-phenyl)-7-((S)-1-phenyl-propyl)-2,3,6,7,8,9-hexahydro-[1,4]dioxino[2,3-g]isoquinoline-8-carbonyl]-amino}-propionic acid]",0.538 µM
12,"CC[C@@H](c1ccccc1)N1Cc2cc3c(cc2C[C@H]1C(=O)N[C@@H](Cc1ccc(-c2ccnc(C)c2C)cc1)C(=O)O)OC[C@H](c1ccc(OC2CCCC2)cc1)O3 [Example 171, (S)-2-{[(3S,8S)-3-(4-Cyclopentyloxy-phenyl)-7-((S)-1-phenyl-propyl)-2,3,6,7,8,9-hexahydro-[1,4]dioxino[2,3-g]isoquinoline-8-carbonyl]-amino}-3-[4-(2,3-dimethyl-pyridin-4-yl)-phenyl]-propionic acid]",0.118 µM
13,"CC[C@@H](c1ccccc1)N1Cc2cc3c(cc2C[C@H]1C(=O)N[C@@H](Cc1ccc(-c2ccnc(C)c2C)cc1)C(=O)O)OC[C@H](c1ccc(OCC(C)C)cc1)O3 [Example 172, (S)-3-[4-(2,3-Dimethyl-pyridin-4-yl)-phenyl]-2-{[(3S,8S)-3-(4-isobutoxy-phenyl)-7-((S)-1-phenyl-propyl)-2,3,6,7,8,9-hexahydro-[1,4]dioxino[2,3-g]isoquinoline-8-carbonyl]-amino}-propionic acid]",0.132 µM
14,"CC[C@@H](c1ccccc1)N1Cc2cc3c(cc2C[C@H]1C(=O)N[C@@H](Cc1ccc(-c2ccnc(C)c2C)cc1)C(=O)O)OC[C@H](c1ccc(OC2CC4CCC2C4)cc1)O3 (stereo partly drawn) [Example 173, (S)-2-{[(3S,8S)-3-[4-(Bicyclo[2.2.1]hept-2-yloxy)-phenyl]-7-((S)-1-phenyl-propyl)-2,3,6,7,8,9-hexahydro-[1,4]dioxino[2,3-g]isoquinoline-8-carbonyl]-amino}-3-[4-(2,3-dimethyl-pyridin-4-yl)-phenyl]-propionic acid]",0.145 µM
15,"Cc1nccc(-c2ccc(C[C@H](NC(=O)[C@@H]3Cc4cc5c(cc4CN3C(=O)OC(C)(C)C)O[C@@H](c3ccc(OCc4ccc(Cl)c(Cl)c4)cc3)CO5)C(=O)O)cc2)c1C [Example 174, (3S,8S)-8-{(S)-1-Carboxy-2-[4-(2,3-dimethyl-pyridin-4-yl)-phenyl]-ethylcarbamoyl}-3-[4-(3,4-dichloro-benzyloxy)-phenyl]-2,3,8,9-tetrahydro-6H-[1,4]dioxino[2,3-g]isoquinoline-7-carboxylic acid tert-butyl ester]",0.153 µM
16,"Cc1nccc(-c2ccc(C[C@H](NC(=O)[C@@H]3Cc4cc5c(cc4CN3Cc3ccccn3)O[C@@H](c3ccc(OCc4ccc(Cl)c(Cl)c4)cc3)CO5)C(=O)O)cc2)c1C [Example 175, (S)-2-({(3S,8S)-3-[4-(3,4-Dichloro-benzyloxy)-phenyl]-7-pyridin-2-ylmethyl-2,3,6,7,8,9-hexahydro-[1,4]dioxino[2,3-g]isoquinoline-8-carbonyl}-amino)-3-[4-(2,3-dimethyl-pyridin-4-yl)-phenyl]-propionic acid]",0.005 µM
17,"Cc1ccccc1CN1Cc2cc3c(cc2C[C@H]1C(=O)N[C@@H](Cc1ccc(-c2ccnc(C)c2C)cc1)C(=O)O)OC[C@H](c1ccc(OCc2ccc(Cl)c(Cl)c2)cc1)O3 [Example 176, (S)-2-{[(3S,8S)-3-[4-(3,4-Dichloro-benzyloxy)-phenyl]-7-(2-methyl-benzyl)-2,3,6,7,8,9-hexahydro-[1,4]dioxino[2,3-g]isoquinoline-8-carbonyl]-amino}-3-[4-(2,3-dimethyl-pyridin-4-yl)-phenyl]-propionic acid]",0.004 µM
18,"Cc1cc(Oc2ccc(C[C@H](NC(=O)[C@@H]3Cc4cc5c(cc4CN3C(=O)c3ccccc3)O[C@@H](c3ccc(OCc4ccc(Cl)c(Cl)c4)cc3)CO5)C(=O)O)cc2)ccn1 [Example 177, (S)-2-({(3S,8S)-7-Benzoyl-3-[4-(3,4-dichloro-benzyloxy)-phenyl]-2,3,6,7,8,9-hexahydro-[1,4]dioxino[2,3-g]isoquinoline-8-carbonyl}-amino)-3-[4-(2-methyl-pyridin-4-yloxy)-phenyl]-propionic acid]",0.15 µM
19,"CCC[C@@H](c1ccccc1)N1Cc2cc3c(cc2C[C@H]1C(=O)N[C@@H](Cc1ccc(-c2ccc(C#N)cc2)cc1)C(=O)O)OC[C@H](c1ccc(OCc2ccc(Cl)c(Cl)c2)cc1)O3 [Example 178, (S)-3-(4′-Cyano-biphenyl-4-yl)-2-{[(3S,8S)-3-[4-(3,4-dichloro-benzyloxy)-phenyl]-7-((S)-1-phenyl-butyl)-2,3,6,7,8,9-hexahydro-[1,4]dioxino[2,3-g]isoquinoline-8-carbonyl]-amino}-propionic acid]",0.306 µM
